For data set [1], the target named is hY4R (Homo sapiens, UniProt P50391). Put plainly: Radioligand binding assay, displacement of [3H]-hPP. In general terms: Displacement assays read how much labelled ligand stays bound in the presence of the test substance.
Data set [2] in a line: Metabolic stability in porcine liver homogenates. The class given is in vitro ADME. As to conditions: pig, porcine liver homogenate (supernatant).
The nature of data set [3]: Stability test in human blood plasma. The class given is in vitro ADME. As to conditions: human.

Peptide text beside a SMILES is read from it. * marks the point of attachment. X1 = CN(C)c1ccc2c(c1)Oc1cc(N(C)C)ccc1C21OC(=O)c2ccc(C(=O)*)cc21

As a reminder, the IC50 is the concentration that gives 50% inhibition. As usually defined, the half-life is how long it takes for the measured level to halve.

Chain of hY4R (P50391 whole entry): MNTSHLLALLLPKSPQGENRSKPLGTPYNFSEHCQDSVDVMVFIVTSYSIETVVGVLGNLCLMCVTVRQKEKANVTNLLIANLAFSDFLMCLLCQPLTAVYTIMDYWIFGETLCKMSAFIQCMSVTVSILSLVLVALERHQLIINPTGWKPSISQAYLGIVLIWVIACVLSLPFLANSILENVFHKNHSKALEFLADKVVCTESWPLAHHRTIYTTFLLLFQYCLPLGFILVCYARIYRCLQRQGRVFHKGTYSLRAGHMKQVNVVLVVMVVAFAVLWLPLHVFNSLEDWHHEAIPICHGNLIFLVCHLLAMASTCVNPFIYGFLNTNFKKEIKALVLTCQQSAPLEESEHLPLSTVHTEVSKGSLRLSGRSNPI

In the case of `CCCCCCCCCCCCCCCC(=O)N[C@@H](CCC(=O)NCCCC[C@H](NC(=O)[C@@H](NC(=O)[C@@H]1CCCN1C(=O)[C@H](CCC(=O)O)NC(=O)[C@H](CC(C)C)NC(=O)[C@@H]1CCCN1C(=O)[C@H](C)NC(=O)c1ccc2c(c1)C(=O)OC21c2ccc(O)cc2Oc2cc(O)ccc21)C(C)C)C(=O)N1CCC[C@H]1C(=O)NCC(=O)N[C@@H](CC(=O)O)C(=O)N[C@@H](CC(N)=O)C(=O)N[C@@H](C)C(=O)N[C@H](C(=O)N1CCC[C@H]1C(=O)N[C@@H](CCC(=O)O)C(=O)N[C@@H](CCC(N)=O)C(=O)N[C@@H](CCSC)C(=O)N[C@@H](C)C(=O)N[C@@H](CCC(N)=O)C(=O)N[C@@H](Cc1ccc(O)cc1)C(=O)N[C@@H](C)C(=O)N[C@@H](C)C(=O)N[C@@H](CC(=O)O)C(=O)N[C@@H](CC(C)C)C(=O)N[C@@H](CCCNC(=N)N)C(=O)N[C@@H](CCCNC(=N)N)C(=O)N[C@@H](Cc1ccc(O)cc1)C(=O)N[C@H](C(=O)N[C@@H](CC(N)=O)C(=O)N[C@@H](CCSC)C(=O)N[C@@H](CC(C)C)C(=O)N[C@H](C(=O)N[C@@H](CCCNC(=N)N)C(=O)N1CCC[C@H]1C(=O)N[C@@H](CCCNC(=N)N)C(=O)N[C@@H](Cc1ccc(O)cc1)C(N)=O)[C@@H](C)O)[C@@H](C)CC)[C@@H](C)O)C(=O)O` [compound 3, CF-[K^7(E-Pam)]hPP], in data set [1], the IC50 came to 401 nM. As for `CC[C@H](C)[C@H](NC(=O)[C@H](Cc1ccc(O)cc1)NC(=O)[C@H](CCCNC(=N)N)NC(=O)[C@H](CCCNC(=N)N)NC(=O)[C@H](CC(C)C)NC(=O)[C@H](CC(=O)O)NC(=O)[C@H](C)NC(=O)[C@H](C)NC(=O)[C@H](Cc1ccc(O)cc1)NC(=O)[C@H](CCC(N)=O)NC(=O)[C@H](C)NC(=O)[C@H](CCSC)NC(=O)[C@H](CCC(N)=O)NC(=O)[C@H](CCC(=O)O)NC(=O)[C@@H]1CCCN1C(=O)[C@@H](NC(=O)[C@H](C)NC(=O)[C@H](CC(N)=O)NC(=O)[C@H](CC(=O)O)NC(=O)CNC(=O)[C@@H]1CCCN1C(=O)[C@H](Cc1ccc(O)cc1)NC(=O)[C@@H](NC(=O)[C@@H]1CCCN1C(=O)[C@H](CCC(=O)O)NC(=O)[C@H](CC(C)C)NC(=O)[C@@H]1CCCN1)C(C)C)[C@@H](C)O)C(=O)N[C@@H](CC(N)=O)C(=O)N[C@@H](CCCCNC(=O)c1ccc2c(c1)C1(OC2=O)c2ccc(N(C)C)cc2Oc2cc(N(C)C)ccc21)C(=O)N[C@@H](CC(C)C)C(=O)N[C@H](C(=O)N[C@@H](CCCNC(=N)N)C(=O)N1CCC[C@H]1C(=O)N[C@@H](CCCNC(=N)N)C(=O)N[C@@H](Cc1ccc(O)cc1)C(N)=O)[C@@H](C)O` [compound 20, [K^30(TAMRA)]hPP2–36] (H-PLEPVYPGDNATPEQMAQYAADLRRYINK(X1)LTRPRY-NH2), the results for the half-life at 10 μM in data set [2] and in data set [3] were 19.7 ± 0.4 h and roughly 100 h, respectively. For the compound `CCCCCCCCCCCCCCCC(=O)N[C@@H](CCC(=O)NCCCC[C@H](NC(=O)[C@H](CC(N)=O)NC(=O)[C@@H](NC(=O)[C@H](Cc1ccc(O)cc1)NC(=O)[C@H](CCCNC(=N)N)NC(=O)[C@H](CCCNC(=N)N)NC(=O)[C@H](CC(C)C)NC(=O)[C@H](CC(=O)O)NC(=O)[C@H](C)NC(=O)[C@H](C)NC(=O)[C@H](Cc1ccc(O)cc1)NC(=O)[C@H](CCC(N)=O)NC(=O)[C@H](C)NC(=O)[C@H](CCSC)NC(=O)[C@H](CCC(N)=O)NC(=O)[C@H](CCC(=O)O)NC(=O)[C@@H]1CCCN1C(=O)[C@@H](NC(=O)[C@H](C)NC(=O)[C@H](CC(N)=O)NC(=O)[C@H](CC(=O)O)NC(=O)CNC(=O)[C@@H]1CCCN1C(=O)[C@H](Cc1ccc(O)cc1)NC(=O)[C@@H](NC(=O)[C@@H]1CCCN1C(=O)[C@H](CCC(=O)O)NC(=O)[C@H](CC(C)C)NC(=O)[C@@H]1CCCN1C(=O)[C@H](C)NC(=O)c1ccc2c(c1)C(=O)OC21c2ccc(O)cc2Oc2cc(O)ccc21)C(C)C)[C@@H](C)O)[C@@H](C)CC)C(=O)N[C@@H](CC(C)C)C(=O)N[C@H](C(=O)N[C@@H](CCCNC(=N)N)C(=O)N1CCC[C@H]1C(=O)N[C@@H](CCCNC(=N)N)C(=O)N[C@@H](Cc1ccc(O)cc1)C(N)=O)[C@@H](C)O)C(=O)O` [compound 6, CF-[K^30(E-Pam)]hPP], in data set [1], the IC50 is 14.9 nM.

For the origin of these results see publication PMC5518309 (ChemMedChem, 2014).
